Experimental data taken from US10124004B2, “Pyrido[3,4-d]pyrimidine derivative and pharmaceutically acceptable salt thereof” (Teijin Pharma Limited, priority 2015, dated 2018).
pIC50: −log10 of the molar value. Where two headings read alike, the source gives them in different places.

Molecular target: T1, CDK4/cyclin D3 (Homo sapiens, UniProt P11802)
T1 construct: purchased Carna Biosciences, Inc. QS S Assist CDK4/Cyclin D3_FP Kit
Assay: Human CDK4/cyclin D3 inhibitory activity (QS S Assist CDK4/Cyclin D3_FP Kit, IMAP fluorescence polarization)
Format: biochemical
Description: Human CDK4/Cyclin D3 Inhibitory Activity
Each compound was analyzed for CDK4/cyclin D3 inhibitory activity with an assay kit (QS S Assist CDK4/Cyclin D3_FP Kit, available from Carna Biosciences, Inc.). This assay kit determines kinase activity on the basis of the IMAP technology by Molecular Devices. Specifically, the kinase activity is determined through quantification of a variation in fluorescent polarization caused by binding of a kinase-phosphorylated fluorescent substance to an IMAP-binding reagent.
Each solution was prepared with the 10× assay buffer attached to the kit or a separately prepared assay buffer having the same composition as the assay buffer attached to the kit. An assay buffer was prepared by 10-fold dilution of the 10× assay buffer with distilled water. The assay buffer contains 20 mM HEPES (pH 7.4), 0.01% Tween20, and 2 mM dithiothreitol. A test compound solution was prepared by dilution of the test compound with dimethyl sulfoxide (DMSO) to a concentration 100 times higher than the final concentration and then 25-fold dilution with the assay buffer to a concentration four times higher than the final concentration. An ATP/substrate/Metal solution was prepared by five-fold dilution of the 5×ATP/substrate/Metal solution attached to the kit with the assay buffer. An enzyme solution was prepared by dilution of the CDK4/cyclin D3 attached to the kit with the assay buffer to a concentration twice higher than the final concentration (final concentration of CDK4/cyclin D3:12.5 to 25 ng/well). A detection reagent was prepared by five-fold dilution of each of 5× IMAP-binding buffer A and 5×IMAP-binding buffer B with distilled water, mixing of IMAP-binding buffer A with IMAP-binding buffer B at a ratio of 85:15, and 400-fold dilution of the IMAP-binding reagent with the mixed buffer.
The test compound solution (5 μL/well) and the ATP/substrate/Metal solution (5 μL/well) were added to a 384-well plate, and the enzyme solution or the assay buffer (10 μL/well) was added to the plate (total amount of the reaction mixture: 20 μL/well) for initiation of enzymatic reaction. […] The reaction was performed at room temperature for 45 minutes, and the detection reagent (60 μL/well) was then added to the plate, followed by further reaction for 30 minutes at room temperature under light shielding conditions. Subsequently, fluorescent polarization was determined with a microplate reader at an excitation wavelength of 485 nm and an emission wavelength of 535 nm.
The percent inhibition of enzyme activity was calculated for each test compound (note: enzyme activity=100% in the case of addition of the enzyme solution and addition of DMSO instead of the test compound solution, whereas enzyme activity=0% in the case of addition of the assay buffer instead of the enzyme solution, and addition of DMSO instead of the test compound solution). The percent inhibition of enzyme activity was fitted to a dose-response curve, to determine a 50% inhibitory concentration against CDK4/cyclin D3.
In each table, “+++” corresponds to IC50<10 nM, “++” 10 nM≤IC50<100 nM, and “+” 100 nM≤IC50.

[1] = Human CDK4/cyclin D3 inhibitory activity, read-out: CDK4 Activity symbol
[2] = 50% inhibitory concentration against CDK4/cyclin D3, given as class symbol

T1 sequence (P11802 whole entry): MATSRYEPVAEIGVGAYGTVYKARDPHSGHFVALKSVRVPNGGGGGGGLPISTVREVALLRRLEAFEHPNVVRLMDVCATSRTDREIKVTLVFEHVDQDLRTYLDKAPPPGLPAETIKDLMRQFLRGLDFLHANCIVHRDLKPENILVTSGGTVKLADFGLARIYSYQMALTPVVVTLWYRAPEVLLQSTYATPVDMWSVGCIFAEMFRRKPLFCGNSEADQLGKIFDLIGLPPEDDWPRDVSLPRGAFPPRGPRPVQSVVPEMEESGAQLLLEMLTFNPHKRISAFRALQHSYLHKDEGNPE
T1 sequence (P30281 whole entry partner): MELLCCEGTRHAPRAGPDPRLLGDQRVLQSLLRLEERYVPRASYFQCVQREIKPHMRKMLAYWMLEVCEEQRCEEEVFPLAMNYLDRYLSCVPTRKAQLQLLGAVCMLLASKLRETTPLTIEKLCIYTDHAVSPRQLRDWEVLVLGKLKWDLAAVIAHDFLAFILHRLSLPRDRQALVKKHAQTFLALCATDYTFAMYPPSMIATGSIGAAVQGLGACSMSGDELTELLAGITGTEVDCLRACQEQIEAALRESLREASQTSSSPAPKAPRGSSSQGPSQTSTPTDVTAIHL

Row | pIC50 [1] | pIC50 [2] | Structure (SMILES)
1 | 7.00 to 8.00 | – | CO[C@H](C)c1cc2cnc(Nc3ccc(N4CCNC(=O)C(C)(C)C4)cn3)nc2c(NC(C)C)n1 [Compound 514]
2 | 7.00 to 8.00 | – | COC(C)c1cc2cnc(Nc3ccc(CN4CCNC5(CC5)C4)cn3)nc2c(NC(C)C)n1 (stereo not drawn) [Compound 515]
3 | 7.00 to 8.00 | – | CC(C)Nc1nc(C(C)O)cc2cnc(Nc3ccc(CN4CCNC5(CC5)C4)cn3)nc12 (stereo not drawn) [Compound 516]
4 | > 8.00 | – | CC(C)Nc1nc([C@@H](C)O)cc2cnc(Nc3ccc(N4CCCC(O)C4)nn3)nc12 (stereo partly drawn) [Compound 517]
5 | > 8.00 | – | CO[C@H](C)c1cc2cnc(Nc3ccc(CC(=O)N4CCNCC4)cn3)nc2c(NC(C)C)n1 [Compound 518]
6 | > 8.00 | – | CC(C)Nc1nc([C@@H](C)O)cc2cnc(Nc3ccc(N4CCC(N5CCOCC5)CC4)nn3)nc12 [Compound 520]
7 | > 8.00 | – | CO[C@H](C)c1cc2cnc(Nc3ccc(N4CC5(CC(O)C5)C4)nn3)nc2c(NC(C)C)n1 [Compound 523]
8 | > 8.00 | – | CO[C@H](C)c1cc2cnc(Nc3ccc(N4C[C@@H]5C[C@H]4CN5)cn3)nc2c(NC(C)C)n1 [Compound 525]
9 | 7.00 to 8.00 | – | CNCCCOc1ccc(Nc2ncc3cc([C@@H](C)OC)nc(NC(C)C)c3n2)nn1 [Compound 527]
10 | > 8.00 | – | CNCCCOc1ccc(Nc2ncc3cc([C@@H](C)O)nc(NC(C)C)c3n2)nc1 [Compound 528]
11 | > 8.00 | – | CNCCCOc1ccc(Nc2ncc3cc([C@@H](C)O)nc(NC(C)C)c3n2)nn1 [Compound 530]
12 | > 8.00 | – | CO[C@H](C)c1cc2cnc(Nc3ccc(N4CCN(C)CC4)nn3)nc2c(NC(C)C)n1 [Compound 531]
13 | > 8.00 | – | CO[C@H](C)c1cc2cnc(Nc3ccc(N4CC(=O)NCC4=O)cn3)nc2c(NC(C)C)n1 [Compound 533]
14 | > 8.00 | – | CO[C@H](C)c1cc2cnc(Nc3ccc(CN4CCNC(C)(C)C4)cn3)nc2c(NC(C)C)n1 [Compound 534]
15 | > 8.00 | – | CO[C@H](C)c1cc2cnc(Nc3ccc(CN4CCNC5(CC5)C4)cn3)nc2c(NC(C)C)n1 [Compound 535]
16 | > 8.00 | – | CC(C)Nc1nc([C@@H](C)O)cc2cnc(Nc3ccc(CN4CCNC(C)(C)C4)cn3)nc12 [Compound 536]
17 | > 8.00 | – | CC(C)Nc1nc([C@@H](C)O)cc2cnc(Nc3ccc(N(C)C(=O)CN)cn3)nc12 [Compound 538]
18 | 7.00 to 8.00 | – | CNC(=O)CNc1ccc(Nc2ncc3cc([C@@H](C)O)nc(NC(C)C)c3n2)nc1 [Compound 539]
19 | > 8.00 | – | CC(C)Nc1nc([C@@H](C)O)cc2cnc(Nc3ccc(N4CCNC(=O)C4)nn3)nc12 [Compound 540]
20 | > 8.00 | – | CC(C)Nc1nc([C@@H](C)O)cc2cnc(Nc3ccc(OC4CCCNC4)nn3)nc12 (stereo partly drawn) [Compound 541]
21 | 7.00 to 8.00 | – | CO[C@H](C)c1cc2cnc(Nc3ccc(N4CCNCC(C)(C)C4=O)cn3)nc2c(NC(C)C)n1 [Compound 542]
22 | > 8.00 | – | CC(C)Nc1nc([C@@H](C)O)cc2cnc(Nc3ccc(N4CCNCC(C)(C)C4=O)cn3)nc12 [Compound 543]
23 | > 8.00 | – | CC(C)Nc1nc([C@@H](C)O)cc2cnc(Nc3ccc(OC4CCNC4)nn3)nc12 (stereo partly drawn) [Compound 544]
24 | > 8.00 | – | CC(C)Nc1nc([C@@H](C)O)cc2cnc(Nc3ccc(O[C@H]4CNC[C@@H]4F)nn3)nc12 [Compound 545]
25 | > 8.00 | – | CC(C)Nc1nc([C@@H](C)O)cc2cnc(Nc3ccc(OC4CNC4)nn3)nc12 [Compound 546]
26 | > 8.00 | – | CC(C)Nc1nc([C@@H](C)O)cc2cnc(Nc3ccc(O[C@H]4CNCC[C@@H]4F)nn3)nc12 [Compound 547]

Row | pIC50 [1] | pIC50 [2] | Structure (SMILES)
27 | 7.00 to 8.00 | – | CNCCOc1ccc(Nc2ncc3cc([C@@H](C)OC)nc(NC(C)C)c3n2)nn1 [Compound 551]
28 | > 8.00 | – | CNCCOc1ccc(Nc2ncc3cc([C@@H](C)O)nc(NC(C)C)c3n2)nn1 [Compound 552]
29 | > 8.00 | – | CC(C)Nc1nc([C@@H](C)O)cc2cnc(Nc3ccc(O[C@H]4CCNC[C@@H]4F)nn3)nc12 [Compound 563]
30 | > 8.00 | – | CC(C)Nc1nc([C@@H](C)O)cc2cnc(Nc3ccc(O[C@@H]4CCNC[C@@H]4F)nn3)nc12 [Compound 564]
31 | > 8.00 | – | CC(C)Nc1nc([C@@H](C)O)cc2cnc(Nc3ccc(O[C@H]4CCCNC4)cn3)nc12 [Compound 565]
32 | > 8.00 | – | CC(C)Nc1nc([C@@H](C)O)cc2cnc(Nc3ccc(OC4CNC4)cn3)nc12 [Compound 568]
33 | > 8.00 | – | CC(C)Nc1nc([C@@H](C)O)cc2cnc(Nc3ccc(OCC4CNC4)cn3)nc12 [Compound 570]
34 | > 8.00 | – | CC(C)Nc1nc([C@@H](C)O)cc2cnc(Nc3ccc(O[C@@H]4CCCNC4)cn3)nc12 [Compound 571]
35 | > 8.00 | – | CC(C)Nc1nc(C(C)O)cc2cnc(Nc3ccc(OC4CNCCC4F)cn3)nc12 (stereo not drawn) [Compound 577]
36 | > 8.00 | – | CC(C)Nc1nc([C@@H](C)O)cc2cnc(Nc3ccc(OCC4(F)CNC4)cn3)nc12 [Compound 578]
37 | 7.00 to 8.00 | – | CC(C)Nc1nc([C@@H](C)O)cc2cnc(Nc3ccc(SCCN(C)C)cn3)nc12 [Compound 580]
38 | > 8.00 | – | CC(C)Nc1nc([C@@H](C)O)cc2cnc(Nc3ccc(N4CCN(CC(C)(C)C)CC4)nn3)nc12 [Compound 587]
39 | > 8.00 | – | CNC1(C)CCN(c2ccc(Nc3ncc4cc([C@@H](C)OC)nc(NC(C)C)c4n3)nn2)CC1 [Compound 594]
40 | > 8.00 | – | CC(C)Nc1nc([C@@H](C)O)cc2cnc(Nc3ccc(N4CCN(C(C)CO)CC4=O)cn3)nc12 (stereo partly drawn) [Compound 598]
41 | 7.00 to 8.00 | – | CO[C@H](C)c1cc2cnc(Nc3ccc(N4CCN(C(C)(C)C)CC4)nn3)nc2c(NC(C)C)n1 [Compound 599]
42 | > 8.00 | – | CC(C)Nc1nc([C@@H](C)O)cc2cnc(Nc3ccc(N4CCN(CC(C)(C)C)CC4=O)cn3)nc12 [Compound 603]
43 | > 8.00 | – | CC(C)Nc1nc(C(C)O)cc2cnc(Nc3ccc(N4CCC(O)C(F)C4)nn3)nc12 (stereo not drawn) [Compound 607]
44 | 7.00 to 8.00 | – | CC(C)Nc1nc([C@@H](C)O)cc2cnc(Nc3ccc(N4CCNCC4=O)nn3)nc12 [Compound 613]
45 | > 8.00 | – | CC(C)Nc1nc([C@@H](C)O)cc2cnc(Nc3ccc(N4CCC(O)C(F)(F)C4)nn3)nc12 (stereo partly drawn) [Compound 617]
46 | > 8.00 | – | CC(C)Nc1nc([C@@H](C)O)cc2cnc(Nc3ccc(N4CC5(CNC(=O)C5)C4)nn3)nc12 [Compound 620]
47 | – | 7.00 to 8.00 | CO[C@H](C)c1cc2cnc(Nc3ccc(N4CCN(CCC(=O)O)CC4)nn3)nc2c(NC(C)C)n1 [Compound 684, (R)-3-(4-(6-((8-(isopropylamino)-6-(l-methoxyethyl)pyrido[3,4-d]pyrimidin-2-yl)amino)pyridazin-3-yl)piperazin-1-yl)propanoic acid]
48 | – | 7.00 to 8.00 | CO[C@H](C)c1cc2cnc(Nc3ccc(CN4CCN(CCC(=O)O)CC4)cn3)nc2c(NC(C)C)n1 [Compound 685]
49 | – | > 8.00 | CC(C)Nc1nc([C@@H](C)O)cc2cnc(Nc3ccc(N4CCC(C)(CO)CC4)nn3)nc12 [Compound 688]
50 | – | 7.00 to 8.00 | CO[C@H](C)c1cc2cnc(Nc3ccc(CN4CCN(CCCC(=O)O)CC4)cn3)nc2c(NC(C)C)n1 [Compound 697]
51 | – | 7.00 to 8.00 | CO[C@H](C)c1cc2cnc(Nc3ccc(N4CCN(CCCC(=O)O)CC4)nn3)nc2c(NC(C)C)n1 [Compound 699]
52 | – | > 8.00 | CC(C)Nc1nc([C@@H](C)O)cc2cnc(Nc3ccc(N4CC(F)(CO)C4)nn3)nc12 [Compound 707]

Row | Structure (SMILES) | pIC50 [1] | pIC50 [2]
53 | CC(C)Nc1nc([C@@H](C)O)cc2cnc(Nc3ccc(CC(=O)N4CCN(CCO)CC4)cn3)nc12 [Compound 616] | > 8.00 | –
54 | CC(C)Nc1nc([C@@H](C)O)cc2cnc(Nc3ccc(N4CC5CC(C4)C5O)nn3)nc12 (stereo partly drawn) [Compound 687] | – | > 8.00
